In ChEMBL document CHEMBL1201862, “PubChem BioAssay data set” (2004):
Calls of active or inactive are those of the source.

What was measured:
[1] = target: NS3 (Hepatitis C virus, UniProt A3EZJ3); assay: HCV NS3 helicase inhibitor potency, dose response, biochemical, fluorescence polarization, ChemBridge library (AID 743264)
[2] = MITF Orthogonal Assay: SK-MEL-5 CTG Assay Measured in Cell-Based System Using Plate Reader - 2084-02_Inhibitor_Dose_DryPowder_Activity_Set7.; assay type: functional
[3] = MITF: Counter assay: A375 proliferation Measured in Cell-Based System Using Plate Reader - 2084-03_Inhibitor_Dose_DryPowder_Activity_Set8.; assay type: functional; settings: A-375
[4] = TRPM1 promoter luciferase reporter signal decrease, dose response, MITF inhibitor project, cell-based, SK-MEL-5, dry powder, set 8 (AID 624430); assay type: functional
[5] = microbe, parasite or virus in culture; assay type: functional; settings: Mycobacterium tuberculosis
[6] = THP-1 cell cytotoxicity, dose response, cytotoxicity control for non-replicating M. tuberculosis project (AID 489025); assay type: functional
[7] = cells; assay type: functional
[8] = target: T1, Replicative DNA helicase DnaB (Mycobacterium tuberculosis, UniProt P9WMR3); assay: DnaB intein splicing inhibitors, dose response, biochemical, cell-free fluorescence (AID 449749); assay type: functional
T1 sequence (P9WMR3 whole entry): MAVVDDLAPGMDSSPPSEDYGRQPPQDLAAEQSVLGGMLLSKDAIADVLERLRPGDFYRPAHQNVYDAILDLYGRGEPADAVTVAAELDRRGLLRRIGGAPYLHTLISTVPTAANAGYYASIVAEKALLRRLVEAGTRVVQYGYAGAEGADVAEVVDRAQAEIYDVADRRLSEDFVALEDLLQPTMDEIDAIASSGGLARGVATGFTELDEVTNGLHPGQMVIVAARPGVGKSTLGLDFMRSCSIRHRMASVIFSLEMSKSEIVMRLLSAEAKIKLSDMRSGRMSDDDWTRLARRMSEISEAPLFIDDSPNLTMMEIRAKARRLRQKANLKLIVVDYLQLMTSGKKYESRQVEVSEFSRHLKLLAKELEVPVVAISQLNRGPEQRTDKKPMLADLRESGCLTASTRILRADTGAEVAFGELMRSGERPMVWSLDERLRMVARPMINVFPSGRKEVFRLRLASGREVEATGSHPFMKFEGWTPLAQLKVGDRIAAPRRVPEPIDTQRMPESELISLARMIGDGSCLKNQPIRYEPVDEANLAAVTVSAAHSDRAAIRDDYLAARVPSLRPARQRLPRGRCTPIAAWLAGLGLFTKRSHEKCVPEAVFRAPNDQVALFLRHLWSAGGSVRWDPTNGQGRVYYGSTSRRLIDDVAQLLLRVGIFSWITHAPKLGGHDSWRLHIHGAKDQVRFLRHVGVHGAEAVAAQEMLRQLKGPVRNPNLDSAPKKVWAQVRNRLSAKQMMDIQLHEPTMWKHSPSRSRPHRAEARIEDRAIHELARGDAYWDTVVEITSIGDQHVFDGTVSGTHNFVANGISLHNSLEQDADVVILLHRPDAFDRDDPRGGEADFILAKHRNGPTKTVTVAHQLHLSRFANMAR

[9] = target: T2, Protein RecA (Mycobacterium tuberculosis, UniProt P9WHJ3); assay: Fluorescence Cell-Free Homogeneous Dose Retest to Identify Inhibitors of RecA-Intein Splicing Activity. [Related pubchem assays (depositor defined):AID2097, AID2223, AID489010, AID492950]; assay type: functional
T2 sequence (P9WHJ3 whole entry): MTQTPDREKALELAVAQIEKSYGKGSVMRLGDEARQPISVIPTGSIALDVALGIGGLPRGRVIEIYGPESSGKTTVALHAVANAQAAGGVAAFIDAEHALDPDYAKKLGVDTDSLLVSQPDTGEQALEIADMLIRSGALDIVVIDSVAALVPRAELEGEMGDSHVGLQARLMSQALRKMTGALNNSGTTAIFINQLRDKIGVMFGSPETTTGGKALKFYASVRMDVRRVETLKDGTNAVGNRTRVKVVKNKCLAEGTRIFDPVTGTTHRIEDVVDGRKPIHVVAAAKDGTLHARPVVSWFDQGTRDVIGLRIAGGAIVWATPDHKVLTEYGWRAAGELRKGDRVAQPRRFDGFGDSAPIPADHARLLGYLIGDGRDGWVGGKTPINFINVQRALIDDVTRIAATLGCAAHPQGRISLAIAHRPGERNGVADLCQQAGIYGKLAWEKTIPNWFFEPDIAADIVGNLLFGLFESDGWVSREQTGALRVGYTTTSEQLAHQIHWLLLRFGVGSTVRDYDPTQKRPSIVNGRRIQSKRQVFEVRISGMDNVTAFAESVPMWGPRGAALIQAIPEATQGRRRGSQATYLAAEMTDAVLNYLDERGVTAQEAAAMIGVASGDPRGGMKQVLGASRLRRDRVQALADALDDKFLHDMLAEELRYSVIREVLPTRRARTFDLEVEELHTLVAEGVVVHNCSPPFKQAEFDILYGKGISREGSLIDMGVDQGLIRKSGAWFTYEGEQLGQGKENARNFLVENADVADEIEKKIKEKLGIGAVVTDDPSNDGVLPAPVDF

[10] = target: 1-phosphatidylinositol 4,5-bisphosphate phosphodiesterase gamma-1 (Homo sapiens, UniProt P19174); assay: Counterscreen for inhibitors of phospholipase C isozymes (PLC-B3): Fluorescence-based biochemical high throughput dose response assay to identify inhibitors of phospholipase C isozymes (PLC-gamma1).
[11] = target: 1-phosphatidylinositol 4,5-bisphosphate phosphodiesterase beta-3 (Homo sapiens, UniProt Q01970); assay: Fluorescence-based biochemical high throughput dose response assay to identify inhibitors of phospholipase C isozymes (PLC-B3).
[12] = A549 cell cytotoxicity, dose response, cytotoxicity control, plate reader, cherry-pick, antagonist series (AID 743412); assay type: functional, cell-based
[13] = HepG2 cell cytotoxicity, dose response, cytotoxicity control, plate reader, cherry-pick, antagonist series (AID 743416); assay type: functional, cell-based
[14] = LGR2 antagonists, dose response, cell-based, HEK293, CRE-luciferase reporter, cherry pick (AID 743342); assay type: functional
[15] = MC4R antagonists, dose response, counter-screen for LGR2 antagonist project, cell-based, plate reader, cherry pick (AID 743444); assay type: functional;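 further: transfected HEK 293 cells stimulated with alpha-MSH peptide; potency of inhibitors of the alpha-MSH evoked signal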
[16] = target: Major prion protein (Homo sapiens, UniProt P04156); assay type: functional, cell-based
[17] = cells
[18] = A375 melanoma cell viability loss, dose response, counter-screen for MITF inhibitor project, CellTiter-Glo luminescence, dry powder, set 4 (AID 624364); assay type: functional, cell-based; settings: A-375;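 further: A375 melanoma cells are MITF independent so this is a counter screen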
[19] = A375 melanoma cell cytotoxicity, dose response, counter-screen for MITF inhibitor project, CellTiter-Glo luminescence, dry powder, set 2 (AID 624489); assay type: functional, cell-based; settings: A-375;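 further: actives are compounds lowering A375 viability meaning general cytotoxicity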
[20] = target: Fatty acid synthase (Homo sapiens, UniProt P49327); assay: FAS thioesterase domain inhibitors, SAR follow-up, biochemical, endpoint fluorescence intensity, powder samples (AID 652164); assay type: functional
[21] = Late stage assay provider results from the probe development effort to identify inhibitors of the Plasmodium falciparum M18 Aspartyl Aminopeptidase (M18AAP): radiolabel-based cell-based dose response assay to identify compounds that inhibit P. falciparum growth in RBCs, Set 2..; assay type: functional
[22] = target: T3, Sentrin-specific protease 8 (Homo sapiens, UniProt Q96LD8); assay type: functional
T3 sequence (Q96LD8 whole entry): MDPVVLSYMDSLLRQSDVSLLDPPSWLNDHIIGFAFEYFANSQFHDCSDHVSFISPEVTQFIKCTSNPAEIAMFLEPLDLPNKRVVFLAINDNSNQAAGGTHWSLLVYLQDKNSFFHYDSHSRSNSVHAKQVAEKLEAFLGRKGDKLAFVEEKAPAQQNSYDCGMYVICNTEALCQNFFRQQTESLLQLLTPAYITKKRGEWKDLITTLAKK

[23] = target: T3, Sentrin-specific protease 8; assay type: functional; remark: listed apart in the source

Chain of Fatty acid synthase (P49327 whole entry, the tested form may be a part): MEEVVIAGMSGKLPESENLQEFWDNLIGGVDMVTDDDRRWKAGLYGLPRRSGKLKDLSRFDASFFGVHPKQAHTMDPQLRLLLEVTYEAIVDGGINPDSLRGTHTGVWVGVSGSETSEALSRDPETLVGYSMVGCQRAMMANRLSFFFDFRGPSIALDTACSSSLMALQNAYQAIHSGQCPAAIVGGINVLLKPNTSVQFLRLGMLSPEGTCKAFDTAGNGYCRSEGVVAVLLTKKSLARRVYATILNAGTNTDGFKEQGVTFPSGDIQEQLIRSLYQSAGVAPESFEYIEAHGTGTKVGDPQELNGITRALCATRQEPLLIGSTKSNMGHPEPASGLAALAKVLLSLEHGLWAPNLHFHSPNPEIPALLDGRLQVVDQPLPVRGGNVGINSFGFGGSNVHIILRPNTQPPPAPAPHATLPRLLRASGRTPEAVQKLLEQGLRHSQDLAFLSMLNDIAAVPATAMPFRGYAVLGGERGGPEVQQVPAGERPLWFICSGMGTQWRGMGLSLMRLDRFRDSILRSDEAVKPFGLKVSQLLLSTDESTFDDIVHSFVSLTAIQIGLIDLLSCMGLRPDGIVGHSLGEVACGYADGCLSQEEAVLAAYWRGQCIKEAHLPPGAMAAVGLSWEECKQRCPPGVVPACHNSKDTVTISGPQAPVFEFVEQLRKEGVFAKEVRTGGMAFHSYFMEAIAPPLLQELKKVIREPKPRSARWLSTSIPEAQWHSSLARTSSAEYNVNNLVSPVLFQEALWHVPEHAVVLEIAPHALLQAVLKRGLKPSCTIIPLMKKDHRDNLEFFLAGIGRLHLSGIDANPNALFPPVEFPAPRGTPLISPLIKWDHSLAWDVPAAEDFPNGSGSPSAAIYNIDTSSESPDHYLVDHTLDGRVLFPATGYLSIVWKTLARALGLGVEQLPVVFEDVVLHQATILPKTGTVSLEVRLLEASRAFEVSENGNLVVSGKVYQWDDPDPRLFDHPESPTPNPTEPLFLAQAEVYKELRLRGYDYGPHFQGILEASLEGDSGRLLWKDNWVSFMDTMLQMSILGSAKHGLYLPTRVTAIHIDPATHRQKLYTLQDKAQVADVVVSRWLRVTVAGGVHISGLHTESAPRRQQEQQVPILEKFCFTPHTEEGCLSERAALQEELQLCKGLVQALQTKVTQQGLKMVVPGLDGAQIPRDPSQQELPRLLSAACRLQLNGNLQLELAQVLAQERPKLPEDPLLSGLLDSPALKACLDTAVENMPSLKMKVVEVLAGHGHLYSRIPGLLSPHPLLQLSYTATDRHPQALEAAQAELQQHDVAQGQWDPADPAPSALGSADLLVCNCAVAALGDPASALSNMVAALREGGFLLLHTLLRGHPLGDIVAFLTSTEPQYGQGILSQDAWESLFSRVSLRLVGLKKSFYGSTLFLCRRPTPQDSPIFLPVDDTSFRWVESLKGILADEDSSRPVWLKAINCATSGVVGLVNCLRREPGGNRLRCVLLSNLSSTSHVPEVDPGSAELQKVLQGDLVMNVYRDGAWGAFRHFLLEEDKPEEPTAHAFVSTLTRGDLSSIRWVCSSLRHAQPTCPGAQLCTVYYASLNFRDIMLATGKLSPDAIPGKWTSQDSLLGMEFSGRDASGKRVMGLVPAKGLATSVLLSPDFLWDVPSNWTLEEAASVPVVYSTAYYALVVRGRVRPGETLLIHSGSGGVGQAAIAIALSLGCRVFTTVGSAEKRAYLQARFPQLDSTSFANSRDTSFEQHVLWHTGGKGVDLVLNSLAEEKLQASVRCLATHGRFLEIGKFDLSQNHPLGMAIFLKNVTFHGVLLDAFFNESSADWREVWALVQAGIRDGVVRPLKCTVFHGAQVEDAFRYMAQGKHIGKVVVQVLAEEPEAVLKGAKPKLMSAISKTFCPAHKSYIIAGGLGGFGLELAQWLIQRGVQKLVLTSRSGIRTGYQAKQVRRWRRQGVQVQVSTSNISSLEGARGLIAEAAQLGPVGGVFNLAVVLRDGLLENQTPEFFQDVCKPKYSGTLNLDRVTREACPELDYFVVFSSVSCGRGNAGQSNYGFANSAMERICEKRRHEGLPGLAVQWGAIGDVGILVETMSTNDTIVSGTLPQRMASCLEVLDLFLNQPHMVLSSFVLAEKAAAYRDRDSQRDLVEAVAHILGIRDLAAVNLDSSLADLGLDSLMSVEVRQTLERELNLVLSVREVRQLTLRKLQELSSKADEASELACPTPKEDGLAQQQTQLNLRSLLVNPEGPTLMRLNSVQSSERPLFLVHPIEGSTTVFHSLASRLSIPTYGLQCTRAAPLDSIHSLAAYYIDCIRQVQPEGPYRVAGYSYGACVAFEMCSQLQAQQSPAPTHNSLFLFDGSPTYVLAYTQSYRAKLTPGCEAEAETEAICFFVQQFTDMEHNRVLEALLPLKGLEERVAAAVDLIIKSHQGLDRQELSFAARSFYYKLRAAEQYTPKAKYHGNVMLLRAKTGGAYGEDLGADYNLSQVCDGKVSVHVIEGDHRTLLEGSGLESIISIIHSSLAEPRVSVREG
Chain of 1-phosphatidylinositol 4,5-bisphosphate phosphodiesterase gamma-1 (P19174 whole entry): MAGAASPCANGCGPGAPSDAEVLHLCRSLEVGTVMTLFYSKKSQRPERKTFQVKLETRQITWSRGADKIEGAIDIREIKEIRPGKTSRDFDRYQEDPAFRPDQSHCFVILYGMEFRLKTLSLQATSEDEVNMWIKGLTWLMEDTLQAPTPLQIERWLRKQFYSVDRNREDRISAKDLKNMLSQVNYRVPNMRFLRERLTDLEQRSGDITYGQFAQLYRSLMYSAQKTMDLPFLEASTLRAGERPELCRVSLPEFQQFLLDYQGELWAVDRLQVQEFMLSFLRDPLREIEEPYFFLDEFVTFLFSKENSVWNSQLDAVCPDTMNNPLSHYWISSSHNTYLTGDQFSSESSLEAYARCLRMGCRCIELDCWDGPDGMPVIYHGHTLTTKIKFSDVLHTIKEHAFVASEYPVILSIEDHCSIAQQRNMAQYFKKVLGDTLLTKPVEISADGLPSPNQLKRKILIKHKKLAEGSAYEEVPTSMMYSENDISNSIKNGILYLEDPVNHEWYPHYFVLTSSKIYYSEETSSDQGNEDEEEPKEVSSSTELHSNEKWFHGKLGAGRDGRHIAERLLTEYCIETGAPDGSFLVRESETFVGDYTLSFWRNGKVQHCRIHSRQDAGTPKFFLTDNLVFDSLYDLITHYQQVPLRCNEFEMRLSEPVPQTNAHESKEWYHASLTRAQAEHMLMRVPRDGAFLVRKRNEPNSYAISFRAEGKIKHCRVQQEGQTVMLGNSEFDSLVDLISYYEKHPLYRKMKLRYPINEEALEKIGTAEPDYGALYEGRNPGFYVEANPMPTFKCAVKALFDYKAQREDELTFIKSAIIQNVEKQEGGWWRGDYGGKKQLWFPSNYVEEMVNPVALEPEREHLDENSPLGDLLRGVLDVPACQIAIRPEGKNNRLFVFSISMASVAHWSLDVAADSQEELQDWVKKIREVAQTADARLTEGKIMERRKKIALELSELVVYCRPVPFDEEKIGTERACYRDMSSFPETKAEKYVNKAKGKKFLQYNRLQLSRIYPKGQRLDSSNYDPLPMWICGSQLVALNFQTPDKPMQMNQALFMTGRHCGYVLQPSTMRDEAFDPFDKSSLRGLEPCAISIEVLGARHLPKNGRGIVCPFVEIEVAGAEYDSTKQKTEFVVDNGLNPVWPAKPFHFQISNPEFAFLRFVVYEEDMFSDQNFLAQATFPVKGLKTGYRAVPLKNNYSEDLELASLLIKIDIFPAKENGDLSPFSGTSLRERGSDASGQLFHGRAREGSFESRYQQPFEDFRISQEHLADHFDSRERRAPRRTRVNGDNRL
Chain of NS3 (A3EZJ3 whole entry): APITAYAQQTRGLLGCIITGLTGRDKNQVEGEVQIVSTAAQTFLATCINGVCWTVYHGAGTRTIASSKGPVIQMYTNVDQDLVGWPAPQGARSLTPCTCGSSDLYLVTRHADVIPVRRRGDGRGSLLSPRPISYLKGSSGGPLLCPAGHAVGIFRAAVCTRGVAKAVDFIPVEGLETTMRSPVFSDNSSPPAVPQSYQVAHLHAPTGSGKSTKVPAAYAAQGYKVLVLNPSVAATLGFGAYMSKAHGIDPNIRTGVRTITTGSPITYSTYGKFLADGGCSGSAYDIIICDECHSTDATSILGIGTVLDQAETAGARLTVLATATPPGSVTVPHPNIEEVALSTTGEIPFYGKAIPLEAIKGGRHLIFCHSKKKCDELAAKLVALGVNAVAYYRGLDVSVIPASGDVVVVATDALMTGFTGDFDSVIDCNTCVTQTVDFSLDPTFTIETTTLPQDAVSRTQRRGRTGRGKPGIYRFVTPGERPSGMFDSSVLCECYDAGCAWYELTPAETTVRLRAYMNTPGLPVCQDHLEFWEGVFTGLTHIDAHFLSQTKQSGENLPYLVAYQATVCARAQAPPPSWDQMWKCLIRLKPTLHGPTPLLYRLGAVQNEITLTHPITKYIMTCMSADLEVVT

SMILES: CC1=C(C#N)c2nc(N)c(C#N)c(C)c2C1=Cc1ccc(-c2cccc(C(=O)O)c2)o1
- IC50 [1]: 143 µM (active)

SMILES: O=C1C(Nc2cccc(Br)c2)=C(N2CCCCC2)C(=O)c2ccccc21
- AC50 [2]: 19.7 µM (active)
- AC50 [3]: > 70 µM (inactive)
- AC50 [4]: 9.81 µM (active)

SMILES: Cc1c([N+](=O)[O-])cnc(Sc2ccccc2)c1[N+](=O)[O-]
- CC50 [5]: 30.3 µM (active)
- CC50 [6]: 26.1 µM (active)
- IC50 [7]: 7.94 µM (active)
- AC50 [8]: 0.181 µM (active)
- EC50 [9]: 0.0479 µM (active)
- IC50 [10]: > 122 µM (inactive)
- IC50 [11]: > 122 µM (inactive)

SMILES: C[C@H](CO)N1C[C@H](C)[C@H](CN(C)C(=O)Nc2ccc(C(F)(F)F)cc2)OCCCC[C@H](C)Oc2ccc(NC(=O)NC3CCCCC3)cc2C1=O
- AC50 [12]: > 52 µM (inactive)
- AC50 [13]: > 52 µM (inactive)
- AC50 [14]: 8.74 µM (active)
- AC50 [15]: 0.898 µM (active)

SMILES: c1ccc2sc(Nc3nc4cc5c(cc4s3)OCO5)nc2c1
- IC50 [16]: 8.57 µM (active)
- IC50 [17]: > 138 µM (inactive)

SMILES: CCN1CCN(C2=C(NC(=O)c3ccc(Br)cc3)C(=O)c3ccccc3C2=O)CC1
- AC50 [18]: 15.2 µM (active)
- AC50 [19]: 6.71 µM (active)

SMILES: CCCCC(=O)Nc1nc(-c2cccc(S(=O)(=O)N3CCOCC3)c2)cs1
- IC50 [20]: 20.2 µM (inactive)

SMILES: Oc1ccc(C2CCN(c3ccnc4ccccc34)CC2)cc1O
- IC50 [21]: 1.3 µM (active)

SMILES: Cc1cc(C)nc(N2N=C(C(C)(C)C)CC2=O)n1
- AC50 [8]: 14.9 µM (active)
- EC50 [9]: 10.9 µM (active)
- IC50 [22]: 8.2 µM (active)
- IC50 [23]: 12.1 µM (active)
